# Experiments:
# [1] = system: Human bone marrow mononuclear cells; experiment: Megakaryocyte and CD41+CD34- cell differentiation in ex vivo human bone marrow culture in 3D bioreactor; assay type: cell-based; conditions: eltrombopag 8 μg/mL + IL11 vs TPO + IL11; non-irradiated control and irradiated cultures; 14 days
# Method: FIGS. 12A-D illustrate the effects of IL-11 only (middle/red bars) versus TPO+IL11 (left/blue bars) versus eltrombopag (8 μg/mL)+IL11 (right/green bars) on promoting megakaryocyte or CD41+CD34− cell differentiation in control and irradiated ex vivo human 3D bone marrow mononuclear cells. Cells were treated with TPO and IL11 (5 ng/mL each) for 6-7 days to induce megakaryocyte differentiation. Culture media was replaced with cultures containing IL-11 only, TPO+IL11, or eltrombopag+IL11 for the groups of control cultures (FIGS. 12A, 12C) and the group of irradiated cultures (FIGS. 12B, 12D). […]
# Human bone marrow mononuclear cells were inoculated into the 6-well bioreactor as described above (3.5×10^6 cells in 0.6 mL). […] Cultures were screened weekly for cell viability (Trypan blue exclusion test) and for megakaryocytes production expressed as number of megakaryocytes per 1000 bone marrow cells on Wright stained cytospin slides.
# Flow cytometry analysis of CD41+CD34− cells (marker for precursor/progenitor of thrombopoiesis) was also performed for megakaryocytes and progenitors as an additional experimental end-point. […] Cells were analyzed on FACS—Calibur Flow Cytometer (Becton-Dickinson, Rockville, Md.). CD41+CD34− cell population was gated as a subpopulation of all living cells analyzed. […]
# Mpl^hExon10 KI mice = experiment: Eltrombopag treatment of non-irradiated Mpl^hExon10 KI mice: platelet and bone marrow cell populations; assay type: in vivo, mouse; conditions: 25 mg/kg/day gavage 15 days, vs vehicle
# Method: Mpl^hExon10 KI mice (9 to 13 weeks old, male and female) were fed with 25 mg eltrombopag (ePag)/kg/day or vehicle by gavage for 15 days. Eltrombopag is a non-peptide mimetic of the TPO receptor. Mice were sacrificed on the 16th day for cell analysis.
# To examine platelet levels, whole blood was obtained by heart puncture and CBC was done by Heska HemaTrue Hematology analyzer. Whole blood was also stained by anti CD41 and anti CD61 antibodies. The ratio of platelets to RBCs was measured by flow cytometry after whole blood was stained with anti-CD41 and anti-CD61 antibodies. The count of platelets was calculated by multiplying the ratio with the count of RBCs obtained by Heska HemaTrue Hematology Analyzer. The data is presented as mean±standard error of the mean.
# To examine bone marrow cell populations, mice were sacrificed on day 16 and bone marrow cells were flushed out of the femur and tibia. RBCs were lysed by ACK buffer. The bone marrow mononuclear cells were stained with anti-CD41-PE and anti-CD42-APC. DAPI was added before flow cytometric analysis to gate away dead cells. The number of mice in each genotype is 5-7. All results are shown as the mean±standard error of the mean.
# In a separate experiment, bone marrow mononuclear cells were stained with anti-lineages-PE (Gr-1, Mac-1, B220, Ter119, CD4 and CD8), anti-Sca-1 FITC, and anti-c-kit-APC. DAPI-pacific blue was added before flow cytometric analysis to eliminate dead cells. To analyze KSL (linage^−, c-kit^+, sca^+) population, live cells (DAPI-) are first gated, followed by gating the linage^− population and selecting c-kit^+/sca-1^+ population within the linage^− population.
# [2] = system: TM KI homozygote mutant mice; experiment: Blood cell recovery in irradiated human c-Mpl TM (exon 10) KI mice; assay type: in vivo, mouse; conditions: 6.5 Gy TBI, 25 mg/kg/day oral gavage from 24 h post IR, vs vehicle
# Method: TM KI homozygote mutant mice (11 weeks old, male and female) were treated with 6.5 Gy TBI and at 24 hr post IR fed with 25 mg ePag/kg/day or vehicle by oral gavage daily for 28 days or till sacrificed. Mice were sacrificed on the day specified. Whole blood was obtained by heart puncture and CBC was done by Heska HemaTrue Hematology analyzer. Whole blood was also stained by anti CD41 and anti CD61 antibodies. BM was extracted and stained with mCD41 and mCD42d for flow cytometry analysis of […] cells (markers for precursor and progenitors for thrombopoiesis).
# The ratio of platelets to RBCs was measured by flow cytometry after whole blood was stained with anti-CD41 and anti-CD61 antibodies. The count of platelets was calculated by multiplying the ratio with the count of RBCs obtained by Heska HemaTrue Hematology Analyzer. Week 0 is normal mice without IR and gavage.
# [3] = system: human c-mpl TM (exon 10) KI mice; experiment: Survival of irradiated human c-mpl TM (exon 10) KI mice; assay type: in vivo, mouse; conditions: 7.75 Gy TBI; for survival after TBI: male mice, 12.5, 25 or 50 mg/kg daily gavage 15 days from 24 h after irradiation, vs vehicle
# Method: (§1) Male Mpl^hExon10KI (human c-mpl TM knock-in mice) received 7.75 Gy TBI. Twenty-four hours after irradiation, mice were gavaged with either vehicle (0 mg/kg of eltrombopag) or one of the three doses of eltrombopag (12.5 mg/kg, 25 m g/kg, vs. 50 mg/kg daily for 15 days (n=8-10) for each experimental group.
# as §1, with “A pilot radiation study of was performed using human” for “Male Mpl^hExon10KI (human”, “KI mice before completion of backcrossing to >95% C57B1. Male human c-mpl TM (exon 10) KI mice” for “knock-in mice)”
# TPO receptors = conditions: depends on His 499 in the transmembrane portion; cited from earlier work
# Mpl^hmMPL knock-in mice = experiment: Survival of Mpl^hmMPL knock-in mice after lethal total body irradiation; assay type: in vivo, mouse; conditions: 8 Gy TBI, eltrombopag 50 mg/kg gavage daily for 15 days from 24 h after TBI, monitored 30 days
# Method: FIG. 3 is a Kaplan-Meier survival curve showing survival of wildtype and Mpl^hmMPL knock-in mice after exposure to a non-therapeutic dose of radiation. Male Mpl^hmMPL knock-in mice received total body irradiation (TBI) of 8 Gy. Twenty-four hours after TBI, mice were gavaged daily with eltrombopag (50 mg/kg) for 15 days. Survival of mice was monitored twice daily for 30 days. Experiments were carried out with 8 homozygous Mpl^hmMPL knock-in mice, 10 heterozygous Mpl^hmMPL knock-in mice, and 10 wild type mice.
# All mice received 8 Gy total body irradiation and were treated with eltrombopag 24 hours after irradiation. […] It is believed that eltrombopag facilitates bone marrow recovery after radiation injury to the hematopoietic system.
structure (smiles),measurement,setting,value
"CC1=NN(c2ccc(C)c(C)c2)C(=O)/C1=N\Nc1cccc(-c2cccc(C(=O)O)c2)c1O [eltrombopag, (Z)-3′-(2-(1-(3,4-dimethylphenyl)-3-methyl-5-oxo-1H-pyrazol-4(5H)-ylidene)hydrazinyl)-2′-hydroxybiphenyl-3-carboxylic acid]",CD41+CD34- cells (precursors/progenitors for thrombopoiesis),[1],performed as well as TPO
same,megakaryocytes (number per 1000 bone marrow cells),[1],performed as well as TPO in promoting megakaryocytes
same,bone marrow Lin-KSL (stem) cells,Mpl^hExon10 KI mice; Mpl^hExon10 KI mice,significantly increased
same,bone marrow CD41+CD42+ cells,"Mpl^hExon10 KI mice; homozygous Mpl^hExon10 KI mice, day 16",significantly increased
same,platelet counts in the peripheral blood,"Mpl^hExon10 KI mice; homozygous Mpl^hExon10 KI mice, day 16, 25 mg/kg/day",significantly increased the platelet counts
same,red blood cell counts,[2]; 2 weeks post IR,an improvement
same,platelet counts,[2]; 4 and 6 weeks post IR,significant improvement
same,count of bone marrow precursor/progenitor cells for thrombopoiesis,[2]; 4 weeks post IR,significant improvement
same,white blood cell counts,[2]; 6 weeks post IR,significant improvement
same,"survival after TBI, dose dependence",[3]; 25 and 50 mg/kg vs 12.5 mg/kg daily for 15 days,higher doses (25 mg/kg and 50 mg/kg) yielded better survival
same,survival after TBI,[3],improves survival
same,survival after TBI,[3]; listed as Eltrombopag,improved the survival of mice
same,species-specificity of TPO receptor binding,TPO receptors,binds to the TPO receptors of only humans and chimpanzees
same,"survival after lethal total body irradiation, heterozygous Mpl^hmMPL knock-in mice",Mpl^hmMPL knock-in mice; heterozygous vs wild type,survived longer than the wild type
same,"survival after lethal total body irradiation, homozygous Mpl^hmMPL knock-in mice",Mpl^hmMPL knock-in mice; homozygous vs heterozygous,survived longer than the heterozygous transgenic mice
